Results taken from patent EP0497399A1, “Process for evaluating skin irritancy” (THE PROCTER & GAMBLE COMPANY, priority 1991, dated 1992).
≈ marks a conversion by molar mass, not a printed value. Like-named read-outs stand apart in the source and are kept apart here. Marks after values point to notes of the source that are not given here.

Key:
HuK/F cultures [1] = assay: Lactate dehydrogenase release into culture medium (cytotoxicity); format: cell-based, human; conditions: 48 hours
Description: (§1) For each HuK/F experiment, on a 24 well plate, 1 test material is evaluated at 4 concentrations (in quadruplicate wells per each concentration). In addition, 4 wells serve as medium control, and 4 wells as sodium dodecyl sulfate positive control. For each material evaluated, a dose-range finding study is performed at 0.001, 0.01, 0.1 and 1.0% (w/v) concentrations to determine the concentration eliciting minimum and maximum cytotoxicity in the MTT assay of cell viability. Based on the dose-range finding study, a range of test material concentrations is selected to determine the concentration eliciting minimum and maximum cytotoxicity in the MTT assay of cell viability. Based on the dose-range finding study, concentrations are selected at the maximal cytoxicity level and minimum level and at two 1/3 log intervals between these concentrations (e.g., if the maximum cytoxicity was at 1% with no cytotoxicity or cell death at 0.1% the concentrations evaluated subsequently would be 0.1, 0.3, 0.6 and 1%).
(§2) On treatment day, growth medium is aseptically aspirated, and the cell meshes are treated with two ml of test medium per well. Medium alone served as a no treatment control with 0.01% sodium dodecyl sulfate acting as a positive control (n=4 wells/group). All test plates are incubated at 37 °C and 5% carbon dioxide for 4 to 72 hours. Observations are made (e.g. changes in medium color) during the treatment period.
(§3) • 1. Place one untreated, precut mesh (no cells) into one or more wells to determine the background non-specific binding (NSB) of MTT to mesh and to act as absolute blank. In remaining wells place 1 mesh per well of the fibroblast/keratinocyte co-cultures. Add 2 ml of the assay medium which is supplied with the test kit. (Marrow-Tech supplies a medium). • 2. Remove medium from each well and add 2 ml/well of test agent diluted in assay medium. Refeed untreated control mesh and mesh without cells with assay medium. • 3. Incubate 48 hours at 37 °C in 5%. carbon dioxide atmosphere. • 4. Prepare a solution of 0.5 mg/ml MTT (Sigma Chemical Co. Catalog #M-2128) in assay medium. Centrifuge MTT/medium for 5 minutes at 3000 RPM to pellet undissolved crystals, then prewarm MTT in a 37 °C waterbath. • 5. Remove spent medium. Use 1 ml aliquot to analyze for lactate dehydrogenase and N-acetylglucosaminidase release and glucose; 1 ml can be saved under nitrogen at -70 °C for PGE2 analysis at a later time. • 6. Add 1 ml/well MTT/medium solution. Add medium without MTT to absolute blank well. Incubate cultures at 37 °C, 5% carbon dioxide for 3 hours. • 7. Remove MTT/medium and wash each mesh 2 times with 1 ml Dulbecco's phosphate buffered saline with calcium and magnesium (PBS). About 2-5 minutes each wash. • 8. Remove second PBS wash and add 2 ml isopropanol/well at room temperature 2 hours. This will extract the formazan from mitochondria of cells into the supernatant. (Note: the amount of MTT taken up by a cell culture and subsequently released by solvent extraction is proportional to the number of viable cells within the culture). Remove meshes from test well and stir on shaking vortex mixer. • 9. Transfer 200 microliter aliquots of the blue spent solvent from each well to a 96 well microtiter plate and read absorbance at 540 nm blanking to absolute blank (well not exposed to the MTT). The wells containing the NSB meshes should be subtracted from the test well absorbances before performing calculations below.

HuK/F cultures [2] = assay: N-acetylglucosaminidase release into culture medium (cytotoxicity); format: cell-based, human; conditions: 48 hours
Description: as §1, §2, §3

[3] = MTT assay of cell viability in human skin cell co-cultures on nylon mesh; format: cell-based; conditions: human, huk/f skin cell co-culture
Description: (§4) The MTT assay measures the reduction of a tetrazolium dye by electron transport in mitochondria of viable cells, and subsequent intracellular trapping of the formazan product. • 1. […] It is a measure of cell viability, and is performed on all treatment meshes immediately following medium collection. The MTT assay quantitates the reduction and subsequent trapping of a yellow tetrazolium dye which is reduced by the electron transport chain of functional mitochondria to a purple formazan dye. Briefly, MTT (3-[4,5-Dimethylthiazol-2yl]-2,5-diphenyltetrazolium bromide; Sigma Catalog #M-2128) powder is diluted in cell culture medium (0.5 mg./ml.) and pre-warmed to 37 °C before use. One ml of this dye solution is aliquoted onto each mesh, and the meshes are then incubated 3 hours at 37 °C and 5% CO₂. After incubation, the MTT is aspirated, and 2 ml. of pure isopropanol is used to extract the reduced dye for two hours at room temperature. The meshes are removed from the culture well and extraction solvent mixed by stirring before aliquoting for absorbance readings. The absorbance of each extract is read at 540 nm on a Biotek EL-312 (96 well) spectrophotometer. • 2.

HuK/F cultures [4] = assay: as above; format: cell-based
Description: as §4

HuF cells = format: cell-based, human
Description: Human neonatal fibroblasts are grown in Dulbecco's Modified Eagles Medium (DMEM) supplemented with 10% Fetal Bovine Serum (FBS) (provided by Marrow-Tech). This maintenance medium is the same formulation as described for the above co-cultures with the substitution of 10% FBS for the 2% Ultroser-G medium. Twenty-four hours prior to treatment fibroblasts are trypsinized (Gibco, Trypsin EDTA, Catalog #610-5200AG) by placing 2 ml of 0.25% trypsin over PBS washed cells. After about 1 minute the trypsin is aspirated and cells observed microscopically for rounding up and release from the culture dish. […]
In preliminary experiments with HuK/F co-cultures, two vital dye assays measuring cell viability can be used. […] The MTT assay quantitates the reduction and subsequent trapping of a yellow tetrazolium dye which is reduced by the electron transport chain of functional mitochondria to a purple formazan dye. […] The meshes are removed from the culture well and extraction solvent mixed by stirring before aliquoting for absorbance readings. The absorbance of each extract is read at 540 nm on a Biotek EL-312 (96 well) spectrophotometer. • 2. The Neutral Red Bioassay is described in Borenfreund, E., and Puerner, J., A Simple Quantitative Procedure Using Monolayer Cultures for Cytotoxicity Assays (HTD/NR-90), J. Tissue Cult. […] The cells are evaluated using the standard neutral red assay methodology. […]

in vitro = conditions: human, keratinocyte monolayer
Description: The human keratinocyte monolayer cultures (available from Clonetics) were characterized using a fluorescein-labeled anti-cytokeratin antibody that stained the cytoskeleton of keratinocytes preferentially. This stain confirms that the cells are epithelial in nature.

HuK cells = format: cell-based, human
Description: Human neonatal foreskin keratinocytes are grown in keratinocyte growth medium-KGM complete with epidermal growth factor, insulin, hydrocortisone, anti-microbial agents and supplemented with bovine pituitary extract. (This medium is available from Clonetics). Cultures are maintained in a humidified atmosphere at 37 °C and 5% carbon dioxide throughout the experiment. Four days prior to treatments keratinocytes are trypsinized and subcultured. KGM medium is used and Clonetics reagents and methods used as per their standard protocol. Cells are plated at a density of about 33,000/ well in a 24 well Corning culture plate.
In preliminary experiments with HuK/F co-cultures, two vital dye assays measuring cell viability can be used. […] The MTT assay quantitates the reduction and subsequent trapping of a yellow tetrazolium dye which is reduced by the electron transport chain of functional mitochondria to a purple formazan dye. […] The meshes are removed from the culture well and extraction solvent mixed by stirring before aliquoting for absorbance readings. The absorbance of each extract is read at 540 nm on a Biotek EL-312 (96 well) spectrophotometer. • 2. The Neutral Red Bioassay is described in Borenfreund, E., and Puerner, J., A Simple Quantitative Procedure Using Monolayer Cultures for Cytotoxicity Assays (HTD/NR-90), J. Tissue Cult. […]

[5] = human, huk/f skin cell co-culture, 48 h

Q: Which results are given for `CC(C)(C)CC(C)(C)c1ccc(OCCOCC[N+](C)(C)Cc2ccccc2)cc1` [Benzethonium Chloride]?
A: Lactate Dehydrogenase Release (HuK/F cultures [1]; 0.001 % w/v): 433.5+ U/L; Lactate Dehydrogenase Release (HuK/F cultures [1]; 0.003 % w/v): 1408.0+* U/L; Lactate Dehydrogenase Release (HuK/F cultures [1]; 0.006 % w/v): 1344.0+* U/L; Lactate Dehydrogenase Release (HuK/F cultures [1]; 0.01 % w/v): 1471.5+ U/L; N-Acetylglucosaminidase Release (HuK/F cultures [2]; 0.001 % w/v): 21.20+ U/L; N-Acetylglucosaminidase Release (HuK/F cultures [2]; 0.003 % w/v): 37.63+* U/L; N-Acetylglucosaminidase Release (HuK/F cultures [2]; 0.006 % w/v): 37.10+* U/L; N-Acetylglucosaminidase Release (HuK/F cultures [2]; 0.01 % w/v): 21.73+* U/L

Q: What does the source list for `CCCCCCCCCCCC[N+](C)(C)[O-]` [C12 DDAO, Dodecyl Dimethyl Amine Oxide]?
A: Lactate Dehydrogenase Release (HuK/F cultures [1]; 0.01 % w/v): 116.0+ U/L; Lactate Dehydrogenase Release (HuK/F cultures [1]; 0.03 % w/v): 1270.0+ U/L; Lactate Dehydrogenase Release (HuK/F cultures [1]; 0.06 % w/v): 1261.5+ U/L; Lactate Dehydrogenase Release (HuK/F cultures [1]; 0.1 % w/v): 1196.0+ U/L; CC50 at 48 h [3]: 180 µg/mL (≈ 0.785 mM); N-Acetylglucosaminidase Release (HuK/F cultures [2]; 0.01 % w/v): 21.15 U/L; N-Acetylglucosaminidase Release (HuK/F cultures [2]; 0.03 % w/v): 23.53+ U/L; N-Acetylglucosaminidase Release (HuK/F cultures [2]; 0.06 % w/v): 23.33+ U/L; N-Acetylglucosaminidase Release (HuK/F cultures [2]; 0.1 % w/v): 26.90+ U/L

Q: For Benzalkonium Chloride, which “Lactate Dehydrogenase Release” value (HuK/F cultures [1]; 0.0005 % w/v) is on record?
A: 138.5+ U/L

Q: And the “Lactate Dehydrogenase Release” value (HuK/F cultures [1]; 0.001 % w/v)?
A: 1032.0+* U/L

Q: And the “Lactate Dehydrogenase Release” value (HuK/F cultures [1]; 0.005 % w/v)?
A: 1334.5+* U/L

Q: What about the “Lactate Dehydrogenase Release” value (HuK/F cultures [1]; 0.01 % w/v) of the same compound?
A: 1236.5+* U/L

Q: What about the “MTT-50 Endpoint (Concentration w/v)” value (HuK/F cultures [4]; concentration w/v giving 50% decrease in MTT dye uptake vs untreated control, HuK/F, 48 hours) of the same compound?
A: 0.0007%

Q: And the “N-Acetylglucosaminidase Release” value (HuK/F cultures [2]; 0.0005 % w/v)?
A: 14.95+ U/L

Q: What about the “N-Acetylglucosaminidase Release” value (HuK/F cultures [2]; 0.001 % w/v) of the same compound?
A: 18.08+* U/L

Q: And the “N-Acetylglucosaminidase Release” value (HuK/F cultures [2]; 0.005 % w/v)?
A: 19.93+* U/L

Q: What about the “N-Acetylglucosaminidase Release” value (HuK/F cultures [2]; 0.01 % w/v) of the same compound?
A: 11.98+* U/L

Q: With “Ammonium Coconut Alkyl Ethoxylate 6.5 Sulfate [NH4CNAE6.5S]” as the compound, how does the “MTT-50 Endpoint (Concentration w/v)” value (HuK/F cultures [4]; [5]) read?
A: 0.019%

Q: For `CCCCCCCC/C=C\CCCCCCCC(=O)OCCOCC(OCCO)C1OCC(OCCO)C1OCCO` (stereo not drawn) [Tween 80, Polyoxyethylenesorbitan Monooleate], which CC50 at 48 h [3] is on record?
A: 4300 µg/mL (≈ 7.11 mM)

Q: With “Ammonium Coconut Alkyl Ethoxylate 12 Sulfate [NH4CNAE12S]” as the compound, how does the “MTT-50 Endpoint (Concentration w/v)” value (HuK/F cultures [4]; [5]) read?
A: 0.025%

Q: For `CCCCCCCCCCCCOS(=O)(=O)[O-].[Na+]` [Sodium Dodecyl Sulfate], which CC50 at 48 h ([3]; concentration w/v giving 50% decrease in MTT dye uptake vs untreated control, HuK/F, 48 hours, read-out: MTT-50 Endpoint (Concentration w/v)) is on record?
A: 57 µg/mL

Q: And the “more sensitive than HuK/F cultures (decrease in cell viability, NR assay)” value (HuF cells)?
A: about 10 fold

Q: What about the fold induction at 48 h (in vitro) of the same compound?
A: ~2.5

Q: And the “more sensitive than HuK/F cultures (decrease in cell viability, NR assay)” value (HuK cells)?
A: about 10 fold
